Laboratory results: the NIST ThermoML archive (doi:10.1021/je400709f)
± gives the expanded uncertainty stated by the source.

Assay: excess molar enthalpy (molar enthalpy of mixing); xn = mol fraction of the nth substance listed
Settings: 298.15 K, 101 kPa, Liquid, Calvet calorimetry

CCCCCCCC[n+]1ccn(C)c1.F[B-](F)(F)F [1-methyl-3-octylimidazolium tetrafluoroborate] + CC(C)O
Settings | excess molar enthalpy [kcal/mol]
x1 = 0.139 | 0.337 ± 0.00813
x1 = 0.142 | 0.342 ± 0.00813
x1 = 0.144 | 0.348 ± 0.00837
x1 = 0.148 | 0.354 ± 0.00837
x1 = 0.151 | 0.36 ± 0.00884
x1 = 0.154 | 0.366 ± 0.0086
x1 = 0.158 | 0.373 ± 0.0086
x1 = 0.162 | 0.379 ± 0.00884
x1 = 0.165 | 0.386 ± 0.00884
x1 = 0.17 | 0.392 ± 0.00884
x1 = 0.173 | 0.397 ± 0.00908
x1 = 0.176 | 0.402 ± 0.00908
x1 = 0.179 | 0.406 ± 0.00908
x1 = 0.183 | 0.412 ± 0.00932
x1 = 0.186 | 0.417 ± 0.00932
x1 = 0.19 | 0.422 ± 0.00932
x1 = 0.194 | 0.428 ± 0.00956
x1 = 0.198 | 0.433 ± 0.0098
x1 = 0.202 | 0.439 ± 0.0098
x1 = 0.207 | 0.445 ± 0.0098
x1 = 0.212 | 0.452 ± 0.01
x1 = 0.216 | 0.459 ± 0.0103
x1 = 0.221 | 0.467 ± 0.0103
x1 = 0.227 | 0.475 ± 0.0105
x1 = 0.232 | 0.484 ± 0.0108
x1 = 0.238 | 0.493 ± 0.011
x1 = 0.244 | 0.502 ± 0.011
x1 = 0.251 | 0.511 ± 0.0115
x1 = 0.258 | 0.528 ± 0.012
x1 = 0.265 | 0.54 ± 0.012
x1 = 0.273 | 0.552 ± 0.0122
x1 = 0.281 | 0.565 ± 0.0124
x1 = 0.29 | 0.578 ± 0.0127
x1 = 0.295 | 0.587 ± 0.0129
x1 = 0.301 | 0.597 ± 0.0131
x1 = 0.307 | 0.606 ± 0.0131
x1 = 0.314 | 0.614 ± 0.0134
x1 = 0.32 | 0.624 ± 0.0136
x1 = 0.327 | 0.633 ± 0.0136
x1 = 0.335 | 0.641 ± 0.0139
x1 = 0.342 | 0.65 ± 0.0141
x1 = 0.35 | 0.658 ± 0.0141
x1 = 0.359 | 0.665 ± 0.0143
x1 = 0.367 | 0.672 ± 0.0143
x1 = 0.377 | 0.677 ± 0.0143
x1 = 0.386 | 0.681 ± 0.0146
x1 = 0.396 | 0.683 ± 0.0146
x1 = 0.407 | 0.684 ± 0.0146
x1 = 0.418 | 0.683 ± 0.0146
x1 = 0.43 | 0.682 ± 0.0146
x1 = 0.443 | 0.68 ± 0.0146
x1 = 0.456 | 0.677 ± 0.0143
x1 = 0.471 | 0.672 ± 0.0143
x1 = 0.486 | 0.666 ± 0.0141
x1 = 0.502 | 0.659 ± 0.0141
x1 = 0.519 | 0.65 ± 0.0139
x1 = 0.538 | 0.638 ± 0.0136
x1 = 0.558 | 0.625 ± 0.0134
x1 = 0.566 | 0.619 ± 0.0134
x1 = 0.575 | 0.612 ± 0.0131
x1 = 0.584 | 0.604 ± 0.0129
x1 = 0.593 | 0.596 ± 0.0129
x1 = 0.602 | 0.587 ± 0.0127
x1 = 0.612 | 0.578 ± 0.0124
x1 = 0.622 | 0.567 ± 0.0122
x1 = 0.632 | 0.557 ± 0.012
x1 = 0.643 | 0.545 ± 0.0117
x1 = 0.654 | 0.533 ± 0.0115
x1 = 0.666 | 0.52 ± 0.0112
x1 = 0.678 | 0.506 ± 0.011
x1 = 0.69 | 0.491 ± 0.0108
x1 = 0.703 | 0.476 ± 0.0105
x1 = 0.716 | 0.459 ± 0.01
x1 = 0.73 | 0.441 ± 0.0098
x1 = 0.744 | 0.421 ± 0.00932
x1 = 0.759 | 0.401 ± 0.00908
x1 = 0.775 | 0.378 ± 0.0086
x1 = 0.791 | 0.354 ± 0.00813
x1 = 0.808 | 0.329 ± 0.00765
x1 = 0.825 | 0.301 ± 0.00717
x1 = 0.844 | 0.273 ± 0.00669
x1 = 0.863 | 0.241 ± 0.00621
x1 = 0.883 | 0.208 ± 0.0055
x1 = 0.904 | 0.171 ± 0.00502
x1 = 0.927 | 0.134 ± 0.00454
x1 = 0.95 | 0.0913 ± 0.00406
x1 = 0.974 | 0.048 ± 0.00382

CCCCCCCC[n+]1ccn(C)c1.F[B-](F)(F)F [1-methyl-3-octylimidazolium tetrafluoroborate] + CCCCCO
Settings | excess molar enthalpy [kcal/mol]
x1 = 0.213 | 0.35 ± 0.00813
x1 = 0.218 | 0.358 ± 0.00813
x1 = 0.223 | 0.365 ± 0.00837
x1 = 0.229 | 0.373 ± 0.00837
x1 = 0.234 | 0.38 ± 0.0086
x1 = 0.24 | 0.388 ± 0.0086
x1 = 0.244 | 0.393 ± 0.0086
x1 = 0.249 | 0.398 ± 0.00884
x1 = 0.254 | 0.404 ± 0.00884
x1 = 0.259 | 0.41 ± 0.00908
x1 = 0.264 | 0.416 ± 0.00932
x1 = 0.269 | 0.423 ± 0.00932
x1 = 0.275 | 0.429 ± 0.00932
x1 = 0.281 | 0.435 ± 0.00956
x1 = 0.287 | 0.443 ± 0.0098
x1 = 0.293 | 0.45 ± 0.0098
x1 = 0.3 | 0.457 ± 0.01
x1 = 0.306 | 0.464 ± 0.01
x1 = 0.314 | 0.472 ± 0.0103
x1 = 0.321 | 0.481 ± 0.0105
x1 = 0.329 | 0.49 ± 0.0108
x1 = 0.338 | 0.5 ± 0.011
x1 = 0.346 | 0.51 ± 0.011
x1 = 0.356 | 0.52 ± 0.0112
x1 = 0.365 | 0.53 ± 0.0115
x1 = 0.372 | 0.537 ± 0.0117
x1 = 0.378 | 0.544 ± 0.0117
x1 = 0.385 | 0.552 ± 0.012
x1 = 0.392 | 0.559 ± 0.0122
x1 = 0.4 | 0.567 ± 0.0122
x1 = 0.407 | 0.574 ± 0.0124
x1 = 0.415 | 0.581 ± 0.0124
x1 = 0.424 | 0.588 ± 0.0127
x1 = 0.432 | 0.595 ± 0.0127
x1 = 0.441 | 0.6 ± 0.0129
x1 = 0.451 | 0.604 ± 0.0129
x1 = 0.46 | 0.607 ± 0.0129
x1 = 0.471 | 0.608 ± 0.0129
x1 = 0.481 | 0.606 ± 0.0129
x1 = 0.492 | 0.604 ± 0.0129
x1 = 0.504 | 0.601 ± 0.0129
x1 = 0.516 | 0.597 ± 0.0127
x1 = 0.529 | 0.592 ± 0.0127
x1 = 0.542 | 0.586 ± 0.0124
x1 = 0.557 | 0.578 ± 0.0124
x1 = 0.572 | 0.568 ± 0.0122
x1 = 0.587 | 0.558 ± 0.012
x1 = 0.604 | 0.546 ± 0.0117
x1 = 0.622 | 0.532 ± 0.0115
x1 = 0.64 | 0.516 ± 0.0112
x1 = 0.648 | 0.508 ± 0.011
x1 = 0.656 | 0.501 ± 0.0108
x1 = 0.664 | 0.492 ± 0.0108
x1 = 0.673 | 0.484 ± 0.0105
x1 = 0.681 | 0.475 ± 0.0103
x1 = 0.69 | 0.465 ± 0.0103
x1 = 0.699 | 0.455 ± 0.01
x1 = 0.708 | 0.444 ± 0.0098
x1 = 0.718 | 0.433 ± 0.00956
x1 = 0.728 | 0.421 ± 0.00932
x1 = 0.738 | 0.408 ± 0.00908
x1 = 0.748 | 0.396 ± 0.00884
x1 = 0.759 | 0.382 ± 0.0086
x1 = 0.77 | 0.367 ± 0.00837
x1 = 0.781 | 0.352 ± 0.00813
x1 = 0.792 | 0.336 ± 0.00765
x1 = 0.804 | 0.319 ± 0.00741
x1 = 0.817 | 0.301 ± 0.00717
x1 = 0.829 | 0.283 ± 0.00669
x1 = 0.842 | 0.263 ± 0.00645
x1 = 0.856 | 0.242 ± 0.00598
x1 = 0.87 | 0.22 ± 0.00574
x1 = 0.884 | 0.197 ± 0.00526
x1 = 0.899 | 0.173 ± 0.00502
x1 = 0.914 | 0.148 ± 0.00454
x1 = 0.93 | 0.12 ± 0.0043
x1 = 0.947 | 0.0927 ± 0.00406
x1 = 0.964 | 0.0626 ± 0.00382
x1 = 0.982 | 0.032 ± 0.00359
